According to paper PMC6272127, “Synthesis, Antiproliferative Activity and Molecular Properties Predictions of Galloyl Derivatives” (Molecules, 2015):
≈ marks a conversion by molar mass, not a printed value.

Key:
[1] = test system: U251 (glioma, CNS); assay: cells
Protocol: The GI50 values (growth inhibitory activity) (Table 1) refer to the drug concentration that produces a 50% reduction of cellular growth compared with the untreated control cells. The TGI (cytostatic activity) and LC50 (cytotoxic activity) values (Table 2) refer to the drug concentration required for total growth inhibition and killing 50% of the cells, respectively.
The synthesized compounds were assessed in the following ten human tumor cell lines from various tissues kindly provide by the National Cancer Institute (Frederick, MD, USA): U251 (glioma, CNS), MCF-7 (breast), NCI-ADR/RES (breast expressing the multiple drug resistance phenotype), 786-0 (renal), NCI-H460 (lung, non-small cells), PC-3 (prostate), OVCAR-3 (ovarian), HT-29 (colon), K-562 (leukemia) and HaCaT (keratinocytes). Stock cultures were grown in media containing 5 mL of RPMI 1640 (Gibco BRL) supplemented with 5% fetal bovine serum. Gentamicin ([…]) was added to the experimental cultures. Cells in 96-well plates (100 µL cells/well) were exposed to sample concentrations in DMSO/RPMI (0.25, 2.5, 25, and 250 µg/mL) at 37 °C and 5% CO2 for 48 h. […] Next, cells were fixed with 50% trichloroacetic acid, and cell proliferation was determined by spectrophotometric quantification (540 nm) of cellular protein content employing the sulforhodamine B assay. Doxorubicin (0.025–25 µg/mL) was used as a positive control. Three measurements were obtained: first at time point zero (T0, at the beginning of incubation) and then 48 h post-incubation for both the compound-free (C) and tested (T) cells. Cell proliferation was determined using the equation 100 × [(T − T0)/C − T0]. A cytostatic effect was observed when T ≥ T0, while a cytocidal effect occurred when T < T0. The experiments were performed in triplicate.

[2] = test system: MCF-7 (breast); assay: Anticancer assay in vitro (sulforhodamine B), MCF-7; assay type: cell-based
Protocol: (§1) The experiments were performed in triplicate.

[3] = test system: OVCAR-3 (ovarian); assay: Anticancer assay in vitro (sulforhodamine B), OVCAR-3; assay type: cell-based; details: for GI50: OVCAR-3, 48 h, SRB
Protocol: as §1

[4] = test system: HT-29 (colon); assay: Anticancer assay in vitro (sulforhodamine B), HT-29; assay type: cell-based
Protocol: as §1

[5] = test system: 786-0 (renal); assay: cells; assay type: cell-based
Protocol: as §1

[6] = test system: K-562 (leukemia); assay: cells; assay type: cell-based; details: Homo sapiens, K562; K-562, 48 h, SRB
Protocol: as §1

[7] = test system: NCI-ADR/RES (breast expressing the multiple drug resistance phenotype); assay: cells; assay type: cell-based; details: NCI/ADR-RES, 48 h
Protocol: as §1

[8] = test system: NCI-H460 (lung, non-small cells); assay: cells; assay type: cell-based
Protocol: as §1

[9] = test system: PC-3 (prostate); assay: cells; assay type: cell-based
Protocol: as §1

[10] = Anticancer assay in vitro (sulforhodamine B), HaCaT; assay type: cell-based; details: human, HaCaT keratinocytes, killing 50% of cells, read-out: LC50
Protocol: as §1

[11] = test system: HaCaT (keratinocytes); assay: as above; assay type: cell-based; details: 48 h
Protocol: as §1

## NNC(=O)c1cc(O)c(O)c(O)c1 [Compound 3, Galloyl hydrazide]
[1]; Homo sapiens, U-251, 48 h
  GI50: 1110 nM
[1]; Homo sapiens, U-251, 48 h, read-out: LC50
  CC50: 31.4 µg/mL (≈ 170 µM)
[1]; U251, total growth inhibition, 48 h
  TGI: 6.13 µg/mL (≈ 33.3 µM)
[2]; Homo sapiens, MCF7, MCF-7, 48 h, SRB
  GI50: 850 nM
[2]; MCF-7, as printed in the text
  TGI: 2360 nM
[2]; MCF-7, total growth inhibition, 48 h
  TGI: 2.36 µg/mL
[3]; Homo sapiens
  GI50: ≤ 890 nM
[3]
  GI50: 880 nM
[3]; OVCAR-3, total growth inhibition, 48 h
  TGI: 9.77 µg/mL (≈ 53.1 µM)
[4]; HT-29, total growth inhibition, 48 h
  TGI: 3.27 µg/mL (≈ 17.8 µM)
[4]; Homo sapiens, HT-29, 48 h, SRB
  GI50: 1210 nM
[4]; Homo sapiens, HT-29, killing 50% of cells, 48 h, read-out: LC50 (the source's name)
  CC50: 26.2 µg/mL (≈ 142 µM)
[5]; 786-0, total growth inhibition, 48 h
  TGI: 17.98 µg/mL (≈ 97.6 µM)
[5]; Homo sapiens, 786-0, 48 h, SRB
  GI50: 1560 nM
[6]
  GI50: 1170 nM
[7]; Homo sapiens, SRB
  GI50: 910 nM
[7]; total growth inhibition
  TGI: 2.56 µg/mL (≈ 13.9 µM)
[8]; Homo sapiens, NCI-H460, 48 h, SRB
  GI50: 5540 nM
[8]; NCI-H460, total growth inhibition, 48 h
  TGI: 17.35 µg/mL (≈ 94.2 µM)
[9]; Homo sapiens, PC-3, 48 h, SRB
  GI50: 3530 nM
[9]; PC-3, total growth inhibition, 48 h
  TGI: 18.31 µg/mL (≈ 99.4 µM)
[10]
  CC50 at 48 h: > 100 µg/mL
[11]; Homo sapiens, SRB
  GI50: 2500 nM
[11]; total growth inhibition
  TGI: 29.02 µg/mL (≈ 158 µM)
